What all share (format): biochemical
Test [1] concerns the target T1, AChE (Electrophorus electricus, UniProt O42275). Description: Enzyme kinetic studies of AChE inhibition (Lineweaver-Burk plots, secondary plots). The following applies: 2 × IC50, IC50 and IC50/2, substrate 600 µM to 18.75 µM. The protocol: Enzyme kinetic studies were carried out in order to determine the mechanism of AChE inhibition. The type of inhibition was forecast using linear Lineweaver-Burk plots. […] The initial velocity measurements were recorded by using different substrate concentrations ranging from 600 µM to 18.75 µM for AChE enzyme. The secondary plots of the Km/Vmax (slope) versus varying concentrations were used to calculate Ki (intercept on the x-axis) values of compounds [35]. The graphical analyses of the steady-state inhibition data for AChE enzyme are shown in Figure 1 and Figure 2, respectively.
Reversible inhibition consists of the following subtypes: mixed-type, competitive, uncompetitive, or noncompetitive. These types of inhibition can be determined with the help of Lineweaver-Burk plots. […] Namely, both compounds can bind to the free enzyme or the enzyme-substrate complex. […] It is known that these interactions occur quickly and can be easily reversed. Therefore, the enzyme and inhibitor complex is rapidly degraded immediately prior to irreversible inhibition. […] As a result, enzyme kinetics studies have shown the biological importance of compounds 3d and 3h due to their mixed type forces, unlike irreversible enzyme inhibitors.
Enzyme kinetic studies were performed for compounds 3d and 3h in order to determine the inhibition type on AChE. […]

Test [2] deals with BChE. How it is done:
New benzimidazole-triazole derivatives were designed, synthesized, and evaluated for their potential to inhibit AChE and BChE. First, all the synthesized compounds were tested at 10^−3 M and 10^−4 M concentrations.
The inhibitory activities of the compounds against AChE and BChE were determined in 96-well plates by modified Ellman’s method as defined in our previous studies. Donepezil and tacrine were used as reference drugs. A robotic system, Biotek Precision XS (Winooski, VT, USA), was used for all pipetting processes in the enzyme inhibition assay. Measurements of the percentage inhibition were carried out at 412 nm by using a BioTek-Synergy H1 microplate reader (Winooski, VT, USA). Inhibition potencies of synthesized compounds and IC50 of selected derivatives were calculated as reported previously.

Test [3] deals with T1, AChE. As to the kind of experiment: AChE inhibition, modified Ellman's method. The following applies: for IC50: determined using 10^−3–10^−9 M concentrations.

Entries after “also recorded” stand apart in the source; their conditions may differ. Read-outs that look alike come from different tables or passages of the source.

T1 sequence (O42275 24-633): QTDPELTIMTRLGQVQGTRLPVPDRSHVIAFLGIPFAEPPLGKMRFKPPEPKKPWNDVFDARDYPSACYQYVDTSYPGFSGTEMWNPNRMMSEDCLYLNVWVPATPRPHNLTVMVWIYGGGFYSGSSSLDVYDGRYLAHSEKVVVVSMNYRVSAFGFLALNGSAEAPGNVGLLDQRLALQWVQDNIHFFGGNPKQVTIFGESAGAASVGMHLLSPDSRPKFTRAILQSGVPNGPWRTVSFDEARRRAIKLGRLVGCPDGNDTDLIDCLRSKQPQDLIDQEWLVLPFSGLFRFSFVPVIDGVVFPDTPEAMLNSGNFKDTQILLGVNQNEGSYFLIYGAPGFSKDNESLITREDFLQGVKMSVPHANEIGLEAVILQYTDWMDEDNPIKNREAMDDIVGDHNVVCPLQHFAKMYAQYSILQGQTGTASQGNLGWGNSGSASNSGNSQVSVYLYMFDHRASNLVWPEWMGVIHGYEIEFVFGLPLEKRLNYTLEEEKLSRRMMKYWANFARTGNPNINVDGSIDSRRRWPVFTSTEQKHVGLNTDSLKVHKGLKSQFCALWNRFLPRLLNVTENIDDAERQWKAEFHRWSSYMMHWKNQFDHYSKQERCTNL

Regarding `Cn1c(SCC(=O)c2ccc(O)c(O)c2)nnc1-c1ccc(-c2nc3cc(Cl)ccc3[nH]2)cc1` [3d, 2-(4-(4-Methyl-5-(2-(3,4-dihydroxyphenyl)-2-oxo-ethylthio)-4H-1,2,4-triazol-3yl)-phenyl)-5(6)-chloro-1H-benzimidazole], the “type of AChE inhibition” value in test [1] was “mixed type inhibition; also recorded: reversible inhibitors; also recorded: reversible and mixed-type”. Also, the “% Inhibition BChE” value in test [2] (10^−3 M) is 51.19 ± 0.99%; in test [2] (10^−4 M), 38.12 ± 0.41%. In addition, the “% Inhibition AChE” value in test [3] (10^−3 M) is listed as 98.55 ± 1.17%. Besides, the “% Inhibition of AChE” value is 87.26 ± 1.28% in test [3] (10^−5 M); 78.85 ± 1.19% in test [3] (10^−6 M); 67.18 ± 0.92% in test [3] (10^−7 M); 45.32 ± 0.82% in test [3] (10^−8 M); 15.75 ± 0.48% in test [3] (10^−9 M).
As to `CCn1c(SCC(=O)c2ccc(O)c(O)c2)nnc1-c1ccc(-c2nc3cc(Cl)ccc3[nH]2)cc1` [3h, 2-(4-(4-Ethyl-5-(2-(3,4-dihydroxyphenyl)-2-oxo-ethylthio)-4H-1,2,4-triazol-3yl)-phenyl)-5(6)-chloro-1H-benzimidazole], in test [1], the “type of AChE inhibition” value is “mixed type inhibition; also recorded: reversible inhibitors; also recorded: reversible and mixed-type”. For the same compound, the entries for the “% Inhibition BChE” value in test [2] (10^−3 M) and in test [2] (10^−4 M) were 61.26 ± 0.90% and 35.20 ± 0.42%, respectively. Further, in test [3] (10^−3 M), the “% Inhibition AChE” value is on record as 98.25 ± 1.12%. The “% Inhibition of AChE” value is 90.23 ± 1.03% in test [3] (10^−5 M); 81.25 ± 1.08% in test [3] (10^−6 M); 65.32 ± 0.97% in test [3] (10^−7 M); 44.28 ± 0.71% in test [3] (10^−8 M); 17.20 ± 0.58% in test [3] (10^−9 M).
As for `Cc1ccc(C(=O)CSc2nnc(-c3ccc(-c4nc5cc(F)ccc5[nH]4)cc3)n2C)cc1` [3k, 2-(4-(4-Methyl-5-(2-(4-methylphenyl)-2-oxo-ethylthio)-4H-1,2,4-triazol-3yl)-phenyl)-5(6)-fluoro-1H-benz-imidazole], the “% Inhibition BChE” value is 36.17 ± 0.93% in test [2] (10^−3 M) and 21.16 ± 0.97% in test [2] (10^−4 M). The “% Inhibition AChE” value is 42.29 ± 0.71% in test [3] (10^−3 M) and 27.88 ± 0.67% in test [3] (10^−4 M).
With `Cn1c(SCC(=O)c2ccc(O)c(O)c2)nnc1-c1ccc(-c2nc3cc(F)ccc3[nH]2)cc1` [3l, 2-(4-(4-Methyl-5-(2-(3,4-dihydroxyphenyl)-2-oxo-ethylthio)-4H-1,2,4-triazol-3yl)-phenyl)-5(6)-fluoro-1H-benzimidazole], the “% Inhibition BChE” value is 55.43 ± 0.47% in test [2] (10^−3 M) and 29.88 ± 0.38% in test [2] (10^−4 M). For the same compound, in test [3] (10^−3 M), the “% Inhibition AChE” value was 94.58 ± 1.74%. Besides, the “% Inhibition of AChE” value stood at 73.18 ± 1.17% in test [3] (10^−5 M); 68.20 ± 0.97% in test [3] (10^−6 M); 48.11 ± 0.61% in test [3] (10^−7 M); 32.29 ± 0.58% in test [3] (10^−8 M); 18.77 ± 0.37% in test [3] (10^−9 M). Besides, half-maximal inhibition in test [3] (IC50) was put at 169 ± 7.2 nM.
As for `CCn1c(SCC(=O)c2ccc(C#N)cc2)nnc1-c1ccc(-c2nc3cc(F)ccc3[nH]2)cc1` [3m, 2-(4-(4-Ethyl-5-(2-(4-cyanophenyl)-2-oxo-ethylthio)-4H-1,2,4-triazol-3yl)-phenyl)-5(6)-fluoro-1H-benz-imidazole], the “% Inhibition BChE” value in test [2] (10^−3 M) was 48.11 ± 0.38%; in test [2] (10^−4 M), 20.66 ± 0.45%. The “% Inhibition AChE” value in test [3] (10^−3 M) is recorded as 59.03 ± 0.88%; in test [3] (10^−4 M) it was 39.26 ± 0.46%.
The like results for `CCn1c(SCC(=O)c2ccc(Br)cc2)nnc1-c1ccc(-c2nc3cc(F)ccc3[nH]2)cc1` [3n, 2-(4-(4-Ethyl-5-(2-(4-bromophenyl)-2-oxo-ethylthio)-4H-1,2,4-triazol-3yl)-phenyl)-5(6)-fluoro-1H-benz-imidazole] were, in that order, 27.10 ± 0.53%, 18.77 ± 0.42%, 49.27 ± 0.55% and 30.21 ± 0.49%.
Taken in the same sequence, the figures for `CCn1c(SCC(=O)c2ccc(C)cc2)nnc1-c1ccc(-c2nc3cc(F)ccc3[nH]2)cc1` [3o, 2-(4-(4-Ethyl-5-(2-(4-methylphenyl)-2-oxo-ethylthio)-4H-1,2,4-triazol-3yl)-phenyl)-5(6)-fluoro-1H-benz-imidazole] were 25.99 ± 0.38%, 20.08 ± 0.46%, 28.06 ± 0.33% and 19.22 ± 0.30%.
`CCn1c(SCC(=O)c2ccc(O)c(O)c2)nnc1-c1ccc(-c2nc3cc(F)ccc3[nH]2)cc1` [3p, 2-(4-(4-Ethyl-5-(2-(3,4-dihydroxyphenyl)-2-oxo-ethylthio)-4H-1,2,4-triazol-3yl)-phenyl)-5(6)-fluoro-1H-benzimidazole]: the “% Inhibition BChE” value in test [2] (10^−3 M) is reported as 53.19 ± 0.46%; in test [2] (10^−4 M), 31.44 ± 0.38%. In addition, the “% Inhibition AChE” value in test [3] (10^−3 M) is recorded as 87.26 ± 1.17%. Moreover, the “% Inhibition of AChE” value in test [3] (10^−5 M) was 77.48 ± 1.98%; in test [3] (10^−6 M) it was 71.62 ± 1.08%; in test [3] (10^−7 M) it was 47.83 ± 0.97%; in test [3] (10^−8 M), 39.33 ± 0.67%; in test [3] (10^−9 M), 15.47 ± 0.64%. The compound also returned an IC50 in test [3] of 140 ± 5.1 nM.

These data come from publication PMC6429502, “Synthesis and AChE-Inhibitory Activity of New Benzimidazole Derivatives” (Molecules, 2019).
